Results on three molecules are retold here after article PMC5882848, “Structural basis of interaction between dimeric cyclophilin 1 and Myb1 transcription factor in Trichomonas vaginalis” (Scientific Reports, 2018).

Entries after “also recorded” stand apart in the source; their conditions may differ.

Series [1] addresses Cyclophilin 1 (TvCyP1) of Trichomonas vaginalis (Trichomonas vaginalis). The series can be described thus: SEC-MALS; 300 μg TvCyP1 (3 mg/mL) on ENrich SEC 70 column; 20 mM monosodium phosphate, 50 mM NaCl, 0.5 mM NaN3, pH 6.0, 25 °C. On the technique in general: SEC sorts molecules by how far they enter the pores of the column.
In series [2] the target is FITC-labeled Myb1^104–111 peptide (Trichomonas vaginalis). Kind of series: fluorescence polarisation. For orientation: Fluorescence polarisation rises when a labelled molecule tumbles more slowly, as on binding a larger partner.
The target of series [3] is Cyclophilin 1 (TvCyP1) of Trichomonas vaginalis (Trichomonas vaginalis). Kind of series: AUC; sedimentation velocity, 29 μM TvCyP1 (legend: 30 μM), 20 °C, 50,000 rpm; 20 mM monosodium phosphate, 50 mM NaCl, 0.5 mM NaN3, pH 6.0; Sedfit.
In series [4] the test system is cyclophilins. The following applies: binding to the active site; cited from earlier work. An excerpt: Catalytically active cyclophilins with a single cyclophilin domain reported till now are monomeric in nature.
Series [5] relates to parasite. To be noted: cited from earlier work. An excerpt:
In most cases, the biological substrates of these cyclophilins are unknown and extensive structural studies on cyclophilin- substrate interactions have not been reported.

For series [6], the system named is TvCyP1. Kind of series: NMR ROESY cis/trans isomerization (PPIase) of P107 in Myb1^104–111. Format: biochemical, Trichomonas vaginalis. The method, then:
^1H-TOCSY, ^1H-COSY and ^1H-NOESY were performed at 300 K with a mixing time of 75 ms (TOCSY) and 300 ms (NOESY) on the Myb1^104–111 peptide to complete the assignment of proton resonances. The peptide was dissolved in 20 mM monosodium phosphate, 50 mM NaCl, 0.5 mM NaN3 (pH 6.0) to obtain a concentration of 2 mM. All ROESY experiments were performed at 300 K with 300 ms mixing time. […]

The conditions of series [7]: cited from earlier work. An excerpt:
Nuclear translocation of Myb1 is an important step regulating the expression of disease causing ap65–1 gene. […] Moreover, CsA is not specific to any of the isof ...

In series [8] the test system is isoforms of cyclophilins. Also on record: method as in PMID 20676357. To be noted: cited from earlier work.

Consider “Cyclophilin 1 (TvCyP1) of Trichomonas vaginalis (enzyme)”, for which the stoichiometry N in series [1] and in series [3] was 2 each time. For the same molecule, the Kd (in general, the free concentration of one partner at which half of the binding sites on the other are occupied at equilibrium, for simple one-to-one binding) in series [2] is 16.8 µM.

As to `CC[C@H]1C[C@H](C)[C@@]2(NC1=O)O[C@@H](C[C@H](O)[C@@H](C)CC/C=C/C=C(\C)[C@@H]1C/C=C/C=C/[C@H](O)[C@H](C)[C@@H](O)[C@@H](CCC(C)=O)C(=O)N[C@@H](C(C)C)C(=O)N[C@@H](Cc3cccc(O)c3)C(=O)N3CCC[C@H](N3)C(=O)O1)[C@H](C)[C@H](O)[C@@H]2C` [sanglifehrin A (SfA), sanglifehrin A], the “inhibition of PPIase activity of cyclophilins” value in series [4] was “PPIase activity of cyclophilins can be inhibited”.

With cyclosporin A [CsA], the “inhibition of PPIase activity of cyclophilins” value in series [4] is on record as “PPIase activity of cyclophilins can be inhibited”. The anti-parasitic activity entry in series [5] was “have been found with anti-parasitic activity”. Moreover, the “inhibition of TvCyP1 isomerase activity” value in series [6] (ROESY, 300 ms mixing time, 300 K, pH 6.0, CsA 22 μM (1.0 molar equivalent), 4.4 mM Myb1^104–111, 22 μM TvCyP1) is “hindered catalysis; also recorded: loss of the exchange cross-peaks between cis and trans resonances”. In series [6] (from ROESY experiments, CsA), the “inhibition of Myb1^104–111 binding to TvCyP1 active site” value is “can inhibit Myb1^104–111 binding to the active site”. Moreover, the immunosuppressive activity result in series [7] is reported as “deleterious effect of its immunosuppressive activity”. For the same molecule, in series [8], the isoform specificity entry is reported as “not specific to any of the isoforms of cyclophilins”.
